Where two headings read alike, the source gives them in different places.
Key:
[1] = assay type: in vitro ADME, humans; details: human, microsomes, 5 μM; for amount remaining: 1 h; for final amount remaining: 60 min
Method: The incubation mixtures were prepared following the instructions from the manufacturer of the metabolic stability kits and contained sagittatoside A, icariside I, baohuoside I, and icaritin, of which the final concentrations were 49, 50, 32 and 3.8 μg/mL. The final concentration of organic solvents in the incubation mixture was 1% (v/v). After preincubation for 5 min at 37 °C, metabolic reactions of phase I and II were both initiated by the addition of human liver microsomes (final concentration, 0.20 mg protein/mL). Phase I metabolism is mediated by the enzyme cytochrome P450 (CYP), and phase II metabolism is mediated by UDP-glucuronosyltransferase (UGT). The whole reaction process was performed under aerobic conditions. After 30 min, an equal volume of cold acetonitrile was added and vortexed for 1 min to terminate the reactions. Subsequently, 200 μL of the resulting solution was centrifuged at 3000 rpm and 4 °C for 10 min. Then, 100 μL of supernatant was dried at 40 °C with nitrogen gas, and the residue was redissolved in 100 μL with fresh medium to prepare for treating cells. Negative controls (incubation without substrate) were prepared in the same manner.
The incubation mixtures were also prepared following Section 2.4 and contained sagittatoside A, icariside I, baohuoside I, and icaritin, of which the final concentrations were 5.00 μM. After the mixtures were incubated separately in phase I or phase II metabolism systems for 5, 10, 15, 20, 30, 45 and 60 min, the reactions were terminated by adding an equal volume of cold acetonitrile (with 7 μM IS) and vortex mixing for 1 min. Subsequently, 200 μL of the resulting solution was centrifuged at 3000 rpm and 4 °C for 10 min. Then, 100 μL of supernatant was dried at 40 °C with nitrogen gas, and the residue was redissolved in 100 μL of 50% methanol to prepare the samples for HPLC–MS/MS detection. Time zero samples (prepared by first adding cold acetonitrile and then adding NADPH for phase I metabolism or NADPH and UDPGA for phase II metabolism) and negative controls (incubation without substrate) were prepared separately in the same manner.
HPLC analysis was performed on an AB Sciex ExionLC HPLC system (Santa Clara, CA, USA) equipped with an autosampler, a vacuum degasser unit, a quaternary pump, a diode array detector (DAD) and a column compartment. Samples were separated on an ACQUITY ΜPLC BEH C18 column (2.1 × 100 mm, 1.7 μm) connected to an ACQUITY ΜPLC BEH C18 precolumn (2.1 × 5 mm, 1.7 μm) at 40 °C. The mobile phases were water with 0.05% formic acid (A) and methanol-acetonitrile (v/v 1:1) with 0.05% formic acid (B), and the elution gradient was as follows: 70% A (0.00–1.00 min), 2% A (2.50–3.50 min), and 70% A (3.51–7.00 min). The flow rate was set at 0.23 mL/min, and the injection volume was 5 μL.
Electrospray ionization–mass spectrometry (ESI–MS) analyses were performed on an AB Sciex QTRAP 5500 (EG250911902) mass spectrometer (Santa Clara, CA, USA). Detection was performed with multiple reaction monitoring (MRM) in ESI negative ion mode. The spray voltage was set to −4500 V, the curtain gas was 25 psi, the collision gas was set to medium, both auxiliary gases 1 and 2 were used at 45 psi, and the heating temperature was 550 °C.
In accordance with the above HPLC–MS/MS analysis method, the content of each compound in the sample at each time point was measured. Then, using the substrate depletion method, the content of each compound in the time zero sample was set as 100%, and the percent residual substrate was calculated. The relationship between the natural logarithmic value of the percent residual substrate and time point was explored by linear regression using GraphPad Prism 5.0 software, and the slope (−k) was obtained. […]

[2] = in vitro; assay type: in vitro ADME, mice; details: mouse, microsomes; for amount remaining: 1 h, 5 μM
[3] = in vitro; assay type: in vitro ADME, rhesus monkeys; details: rhesus monkey, microsomes; for amount remaining: 1 h, 5 μM
[4] = in vitro; assay type: in vitro ADME, beagle dogs; details: beagle, dog, microsomes; for final amount remaining: 60 min, 5 μM
[5] = assay type: in vitro ADME, SD rats; details: SD, rat, microsomes, 60 min, 5 μM

SMILES	amount remaining [1]	final amount remaining [1]	amount remaining [2]	amount remaining [3]	CLint scaled at 5 μM [4]	final amount remaining [4]	final amount remaining [5]	CLint scaled at 5 μM [2]	CLint scaled at 5 μM [3]
COc1ccc(-c2oc3c(CC=C(C)C)c(O)cc(O)c3c(=O)c2O[C@@H]2O[C@@H](C)[C@H](O)[C@@H](O)[C@H]2O)cc1 [baohuoside I]	20.74 ± 0.39%	5.56 ± 0.60%	28.58 ± 4.12%	12.41 ± 1.02%	28.4 mL/min/kg	5.69 ± 0.33%	1.55 ± 0.33%		
COc1ccc(-c2oc3c(CC=C(C)C)c(O[C@@H]4O[C@H](CO)[C@@H](O)[C@H](O)[C@H]4O)cc(O)c3c(=O)c2O)cc1 [icariside I]	10.08 ± 0.43%	45.62 ± 1.52%	7.69 ± 1.17%	6.50 ± 0.49%	24.7 mL/min/kg	30.79 ± 3.26%	22.71 ± 10.94%	80.4 mL/min/kg	38.1 mL/min/kg
COc1ccc(-c2oc3c(CC=C(C)C)c(O)cc(O)c3c(=O)c2O)cc1 [icaritin]	36.23 ± 1.12%	20.51 ± 0.97%	28.55 ± 0.04%	24.73 ± 2.38%		4.42 ± 0.67%	19.44 ± 0.36%		
